The values that follow come from BindingDB's records for doi:10.1016/j.bmcl.2012.11.036 (University of Namur, 2012).

The experiment deals with Indoleamine 2,3-dioxygenase 1 (Homo sapiens, UniProt P14902). Kind of experiment: Inhibition of human recombinant IDO1 using L-Trp as substrate assessed as kynurenine level after 30 mins.

Molecules are shown by their SMILES.

Chain of Indoleamine 2,3-dioxygenase 1 (P14902 whole entry): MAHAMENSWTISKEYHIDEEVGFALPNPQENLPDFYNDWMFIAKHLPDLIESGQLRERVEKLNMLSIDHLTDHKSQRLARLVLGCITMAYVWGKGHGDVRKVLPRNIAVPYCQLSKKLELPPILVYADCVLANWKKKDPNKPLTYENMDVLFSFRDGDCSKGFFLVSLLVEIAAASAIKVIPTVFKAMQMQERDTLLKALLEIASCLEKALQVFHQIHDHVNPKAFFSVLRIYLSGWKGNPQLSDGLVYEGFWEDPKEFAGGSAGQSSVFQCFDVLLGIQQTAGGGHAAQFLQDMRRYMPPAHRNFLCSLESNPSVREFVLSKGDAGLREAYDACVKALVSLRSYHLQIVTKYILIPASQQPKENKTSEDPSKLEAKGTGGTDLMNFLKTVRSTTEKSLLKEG

Usually IC50 stands for the concentration needed to halve the response being measured. As to `COc1ccc(C2CN=C3C(=O)c4ccn(S(=O)(=O)c5ccc(C)cc5)c4C(=O)C32)cc1` (configuration not stated), the 50% inhibitory concentration (IC50) stood at 5.6 µM. With `COc1ccc(C2CN=C3C(=O)c4c(CCN)cn(S(=O)(=O)c5ccc(C)cc5)c4C(=O)C32)cc1` (configuration not stated), the IC50 was 5.6 µM.
